In paper PMC8063935, “Amphipathic Peptide Antibiotics with Potent Activity against Multidrug-Resistant Pathogens” (Pharmaceutics, 2021):
≈ marks a conversion by molar mass, not a printed value. Where a SMILES comes first, the peptide text is derived from it.

Assays:
E. coli C3 (blaNDM-1) = assay: MIC / IC50, micro-broth dilution; format: cell-based, Escherichia coli
Procedure: (§1) The MICs of all drugs were determined by micro-broth dilution method according to CLSI 2018 guidelines. The bacterial suspension used in the experiment was appropriate 1.5 × 10^6 colony-forming units (CFUs) per mL and mixed with the drug solution in a sterilized 96-well microtiter plate (Corning, New York, USA), then incubated at 37 °C for 16–18 h. MIC value was defined as the minimum drug concentration without visible bacteria. Meanwhile, the density of the bacteria at 600 nm was measured, and the corresponding IC50 was calculated using log (inhibitor) vs. response variable slope (four parameters) in Graphpad Prism version 8.3.0 software (San Diego, CA, USA). To assess the role of ROS production in the antibacterial activity of WW307, increasing concentrations of N-acetylcysteine (NAC) from 0 to 5 mM were added in culture medium, followed by MICs test.

E. coli G6 (blaNDM-5) = assay: MIC / IC50, micro-broth dilution; format: cell-based, Escherichia coli
Procedure: as §1

E. coli CP131 (mcr-3) = assay: MIC / IC50, micro-broth dilution; format: cell-based, Escherichia coli; settings: E. coli CP131 (mcr-3)
Procedure: as §1

E. coli B2 [1] = assay: Thermal, pH, salts, serum and protease stability (residual MIC); format: cell-based, Escherichia coli
Procedure: (§2) In order to evaluate the influence of ions and serum on the activity of AMPs, 10 mM Na^+, K^+, Mg^2+, 10% Dulbecco’s Modified Eagle Medium (DMEM) and fetal bovine serum (FBS) were added into Mueller-Hinton broth (MHB) culture medium for subsequent MIC tests.
(§3) Drugs were incubated at different temperatures (range from 40 to 121 °C) and pH (range from 2 to 12) for 1 h, then adjust back to original pH, following MIC test to evaluate their residual activity. To evaluate the protease stability, pepsin, trypsin, and papain were mixed with WW307 to achieve a final concentration of 1 mM, and then incubated at 37 °C for 1 h. After incubation, the remaining protease was precipitated using acetonitrile and removed by centrifugation at 3000× g, following for MIC test.

E. coli B2 [2] = assay: as above; format: cell-based, Escherichia coli; settings: protease precipitated with acetonitrile, then MIC test
[3] = tested on: E. coli B2 (mcr-1 + blaNDM-5); assay: microbe, parasite or virus in culture; format: cell-based, Escherichia coli; settings: E. coli B2 (mcr-1 + blaNDM-5)
Procedure: as §1

E. coli G92 (mcr-1) = assay: microbe, parasite or virus in culture; format: cell-based, Escherichia coli; settings: E. coli G92 (mcr-1)
Procedure: as §1

E. coli 1F28 (tet(X4)) = assay: microbe, parasite or virus in culture; format: cell-based, Escherichia coli
Procedure: as §1

MRSA T144 [4] = assay: microbe, parasite or virus in culture; format: cell-based, Staphylococcus aureus
Procedure: as §1

S. aureus G16 (RIF^R) = assay: microbe, parasite or virus in culture; format: cell-based, Staphylococcus aureus; settings: S. aureus G16 (RIF^R)
Procedure: as §1

MRSA T144 [5] = assay: Thermal, pH, salts, serum and protease stability (residual MIC); format: cell-based, Staphylococcus aureus; settings: protease precipitated with acetonitrile, then MIC test
[6] = tested on: A. baumannii C222 (tet(X6)); assay: microbe, parasite or virus in culture; format: cell-based, Acinetobacter baumannii; settings: A. baumannii C222 (tet(X6))
Procedure: as §1

Sheep RBCs = assay: Hemolysis analysis; format: cell-based; settings: 8% sheep red blood cell suspension, 37 °C, 1 h, released hemoglobin at 576 nm; PBS negative, ddH2O positive control
Procedure: The hemolytic activity on all peptides was evaluated based on previous report. Briefly, fresh Sheep RBCs were washed twice with phosphate buffer (PBS), and then 8% red blood cell suspension was prepared. The increasing concentrations of AMPs and melittin were mixed with 8% red blood cell suspension, respectively, and incubated at 37 °C for 1 h. The sterilized PBS and double-distilled water (ddH2O) were used as blank and positive control, respectively. Afterwards, the supernatant was centrifuged to measure the absorption of released hemoglobin at 576 nm by an Infinite M200 Microplate reader (Tecan, Männedorf, Switzerland). The corresponding hemolysis rate was calculated.

[7] = tested on: P. cibarius HNCF44W (blaNDM-1 + tet(X6)); assay: MIC / IC50, micro-broth dilution; format: cell-based
Procedure: as §1

MRSA T144 [8] = assay: Thermal, pH, salts, serum and protease stability (residual MIC); format: cell-based, Staphylococcus aureus
Procedure: as §2, §3

[9] = OD600 of micro-broth dilution plates, four-parameter fit
[10] = micro-broth dilution, CLSI 2018, ~1.5 × 10^6 CFUs per mL, 37 °C, 16–18 h
[11] = 10% fetal bovine serum (FBS) added into MHB
[12] = WW307 incubated at 40 °C for 1 h before MIC test
[13] = WW307 incubated at 60 °C for 1 h before MIC test
[14] = WW307 incubated at 80 °C for 1 h before MIC test
[15] = WW307 incubated at 100 °C for 1 h before MIC test
[16] = WW307 incubated at 121 °C for 1 h before MIC test
[17] = WW307 incubated at pH 2 for 1 h, adjusted back to original pH, then MIC test
[18] = WW307 incubated at pH 4 for 1 h, adjusted back to original pH, then MIC test
[19] = WW307 incubated at pH 6 for 1 h, adjusted back to original pH, then MIC test
[20] = WW307 incubated at pH 8 for 1 h, adjusted back to original pH, then MIC test
[21] = WW307 incubated at pH 10 for 1 h, adjusted back to original pH, then MIC test
[22] = WW307 incubated at pH 12 for 1 h, adjusted back to original pH, then MIC test
[23] = WW307 incubated with trypsin (1 mg/mL) at 37 °C for 1 h

Compound: CC(C)[C@H](NC(=O)[C@H](Cc1c[nH]c2ccccc12)NC(=O)[C@H](Cc1c[nH]c2ccccc12)NC(=O)[C@H](Cc1c[nH]c2ccccc12)NC(=O)[C@H](Cc1c[nH]c2ccccc12)NC(=O)[C@H](CCCNC(=N)N)NC(=O)[C@H](CCCNC(=N)N)NC(=O)[C@@H](N)CCCNC(=N)N)C(N)=O [WW307] (H-RRRWWWWV-NH2)
- IC50 (E. coli C3 (blaNDM-1); [9]): 1.82 µg/mL (≈ 1.37 µM)
- MIC (E. coli C3 (blaNDM-1); [10]): 4 µg/mL (≈ 3.01 µM)
- IC50 (E. coli G6 (blaNDM-5); [9]): 2.25 µg/mL (≈ 1.69 µM)
- MIC (E. coli G6 (blaNDM-5); [10]): 8 µg/mL (≈ 6.02 µM)
- IC50 (E. coli CP131 (mcr-3); [9]): 2.07 µg/mL (≈ 1.56 µM)
- MIC (E. coli CP131 (mcr-3); [10]): 4 µg/mL (≈ 3.01 µM)
- MIC with K^+ (E. coli B2 [1]; 10 mM K^+ added into MHB): 4 µg/mL
- MIC with Mg^2+ (E. coli B2 [1]; 10 mM Mg^2+ added into MHB): 16 µg/mL
- MIC with Na^+ (E. coli B2 [1]; 10 mM Na^+ added into MHB): 4 µg/mL
- MIC with DMEM (10%) (E. coli B2 [1]; 10% DMEM added into MHB): 8 µg/mL
- MIC with Serum (10%) (E. coli B2 [1]; [11]): 8 µg/mL
- MIC after 40 °C (E. coli B2 [1]; [12]): 4 µg/mL
- MIC after 60 °C (E. coli B2 [1]; [13]): 4 µg/mL
- MIC after 80 °C (E. coli B2 [1]; [14]): 4 µg/mL
- MIC after 100 °C (E. coli B2 [1]; [15]): 4 µg/mL
- MIC after 121 °C (E. coli B2 [1]; [16]): 4 µg/mL
- MIC after pH 2 (E. coli B2 [1]; [17]): 4 μg/mL
- MIC after pH 4 (E. coli B2 [1]; [18]): 4 μg/mL
- MIC after pH 6 (E. coli B2 [1]; [19]): 4 μg/mL
- MIC after pH 8 (E. coli B2 [1]; [20]): 4 μg/mL
- MIC after pH 10 (E. coli B2 [1]; [21]): 4 μg/mL
- MIC after pH 12 (E. coli B2 [1]; [22]): 8 μg/mL
- MIC after pepsin (E. coli B2 [1]; WW307 incubated with pepsin (1 mg/mL) at 37 °C for 1 h, protease precipitated with acetonitrile, then MIC test): 4 µg/mL
- MIC, Control (E. coli B2 [1]; untreated WW307): 4 µg/mL
- MIC after papain (E. coli B2 [2]; WW307 incubated with papain (1 mg/mL) at 37 °C for 1 h): >128 µg/mL
- MIC after trypsin (E. coli B2 [2]; [23]): >128 µg/mL
- IC50 [3, 9]: 4.18 µg/mL
- MIC [3, 10]: 4 µg/mL
- IC50 (E. coli G92 (mcr-1); [9]): 2.18 µg/mL (≈ 1.64 µM)
- MIC (E. coli G92 (mcr-1); [10]): 4 µg/mL (≈ 3.01 µM)
- IC50 (E. coli 1F28 (tet(X4)); [9]): 2.13 µg/mL (≈ 1.6 µM)
- MIC (E. coli 1F28 (tet(X4)); [10]): 4 µg/mL (≈ 3.01 µM)
- IC50 (MRSA T144 [4]; [9]): 1.03 µg/mL (≈ 0.775 µM)
- MIC (MRSA T144 [4]; [10]): 4 µg/mL (≈ 3.01 µM)
- IC50 (S. aureus G16 (RIF^R); [9]): 0.52 µg/mL (≈ 0.391 µM)
- MIC (S. aureus G16 (RIF^R); [10]): 1 µg/mL (≈ 0.752 µM)
- MIC after pepsin (MRSA T144 [5]; WW307 incubated with pepsin (1 mg/mL) at 37 °C for 1 h): 4 µg/mL
- MIC after trypsin (MRSA T144 [5]; [23]): >128 µg/mL
- IC50 [6, 9]: 2.15 µg/mL (≈ 1.62 µM)
- MIC [6, 10]: 4 µg/mL (≈ 3.01 µM)
- HL50 (peptide concentration that causes 50% hemolysis) (Sheep RBCs): > 128 µg/mL
- IC50 [7, 9]: 2.21 µg/mL (≈ 1.66 µM)
- MIC [7, 10]: 2 µg/mL (≈ 1.5 µM)
- MIC with K^+ (MRSA T144 [8]; 10 mM K^+ added into MHB): 4 µg/mL
- MIC with Mg^2+ (MRSA T144 [8]; 10 mM Mg^2+ added into MHB): 16 µg/mL
- MIC with Na^+ (MRSA T144 [8]; 10 mM Na^+ added into MHB): 4 µg/mL
- MIC with DMEM (10%) (MRSA T144 [8]; 10% DMEM added into MHB): 8 µg/mL
- MIC with Serum (10%) (MRSA T144 [8]; [11]): 8 µg/mL
- MIC after 40 °C (MRSA T144 [8]; [12]): 4 µg/mL
- MIC after 60 °C (MRSA T144 [8]; [13]): 4 µg/mL
- MIC after 80 °C (MRSA T144 [8]; [14]): 4 µg/mL
- MIC after 100 °C (MRSA T144 [8]; [15]): 4 µg/mL
- MIC after 121 °C (MRSA T144 [8]; [16]): 4 µg/mL
- MIC after pH 2 (MRSA T144 [8]; [17]): 4 μg/mL
- MIC after pH 4 (MRSA T144 [8]; [18]): 4 μg/mL
- MIC after pH 6 (MRSA T144 [8]; [19]): 4 μg/mL
- MIC after pH 8 (MRSA T144 [8]; [20]): 4 μg/mL
- MIC after pH 10 (MRSA T144 [8]; [21]): 4 μg/mL
- MIC after pH 12 (MRSA T144 [8]; [22]): 4 μg/mL
- MIC after papain (MRSA T144 [8]; WW307 incubated with papain (1 mg/mL) at 37 °C for 1 h, protease precipitated with acetonitrile, then MIC test): >128 µg/mL
- MIC, Control (MRSA T144 [8]; untreated WW307): 4 µg/mL
